Here are results for one substance from patent publication US5354843A, “Flanking peptides of calcitonin and processes for their manufacture” (Ciba-Geigy Corporation, priority 1988, dated 1994).

This data set is described as follows: isoelectric point. In kind it is physicochemical. From the text: FAB-MS: MH^+ 6220 (calculated molecular weight: 6220), isoelectric point: 4.2 (calculated: 4.04).

“human procalcitonin amino-terminal flanking peptide [PCATFP]” returned an isoelectric point of 4.2.
